In US20250263395A1, “COMPOUNDS THAT MEDIATE PROTEIN DEGRADATION AND METHODS OF USE THEREOF” (Monte Rosa Therapeutics AG, priority 2022, published 2025):

Experiments:
CDK2 = CDK2 (Homo sapiens (Human), UniProt P24941); assay: CDK2 NanoBiT assay (HiBiT-tagged CDK2 degradation); format: cell-based; conditions: HEK293, HEK293 clonal line, C-terminal HiBiT tag on CDK2, LgBiT; 24 hours
Outline: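 HEK293 line with CRISPR knock-in C-terminal HiBiT-tagged CDK2 and stable LgBiT, preincubated 16 h with live-cell substrate, then compound-treated 24 h at 37° C, 5% CO2 (30 μM stock). Luminescence normalized to plate negative and positive controls; EC50 from 3-parameter logistic fit, Hill slope 1.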

CRBN-DDB1 = CRBN-DDB1 (Homo sapiens (Human), UniProt Q96SW2); assay: CRBN HTRF assay (Cy5-Thalidomide probe displacement); format: binding; conditions: CRBN-DDB1 2.5 nM, Cy5-Thalidomide 100 nM, 30 min; Ki from geometric mean IC50 by Cheng-Prusoff
Outline: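 HTRF displacement of Cy5-thalidomide probe (100 nM) from His-CRBN-DDB1 (2.5 nM) with anti-His terbium cryptate, in HEPES/NaCl/TCEP/EDTA/Tween20 buffer. 10-point 1:3 compound series, 30 min at ambient temperature; signal normalised to DMSO and lenalidomide controls, IC50 fitted and Ki derived by Cheng-Prusoff.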

CRBN-DDB1, sequence (Q96SW2 whole entry): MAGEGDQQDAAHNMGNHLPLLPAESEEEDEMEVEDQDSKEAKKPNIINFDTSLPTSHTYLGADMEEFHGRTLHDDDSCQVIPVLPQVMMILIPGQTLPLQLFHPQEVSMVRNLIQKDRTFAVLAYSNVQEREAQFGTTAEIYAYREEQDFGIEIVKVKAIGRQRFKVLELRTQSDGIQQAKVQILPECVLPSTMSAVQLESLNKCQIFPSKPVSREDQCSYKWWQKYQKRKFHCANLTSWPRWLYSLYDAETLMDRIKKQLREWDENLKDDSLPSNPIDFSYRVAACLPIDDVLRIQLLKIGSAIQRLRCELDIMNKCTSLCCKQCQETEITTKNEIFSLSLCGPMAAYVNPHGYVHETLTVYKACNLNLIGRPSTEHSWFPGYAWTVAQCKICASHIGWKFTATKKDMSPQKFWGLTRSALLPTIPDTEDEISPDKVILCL
CRBN-DDB1, sequence (Q16531 whole entry partner): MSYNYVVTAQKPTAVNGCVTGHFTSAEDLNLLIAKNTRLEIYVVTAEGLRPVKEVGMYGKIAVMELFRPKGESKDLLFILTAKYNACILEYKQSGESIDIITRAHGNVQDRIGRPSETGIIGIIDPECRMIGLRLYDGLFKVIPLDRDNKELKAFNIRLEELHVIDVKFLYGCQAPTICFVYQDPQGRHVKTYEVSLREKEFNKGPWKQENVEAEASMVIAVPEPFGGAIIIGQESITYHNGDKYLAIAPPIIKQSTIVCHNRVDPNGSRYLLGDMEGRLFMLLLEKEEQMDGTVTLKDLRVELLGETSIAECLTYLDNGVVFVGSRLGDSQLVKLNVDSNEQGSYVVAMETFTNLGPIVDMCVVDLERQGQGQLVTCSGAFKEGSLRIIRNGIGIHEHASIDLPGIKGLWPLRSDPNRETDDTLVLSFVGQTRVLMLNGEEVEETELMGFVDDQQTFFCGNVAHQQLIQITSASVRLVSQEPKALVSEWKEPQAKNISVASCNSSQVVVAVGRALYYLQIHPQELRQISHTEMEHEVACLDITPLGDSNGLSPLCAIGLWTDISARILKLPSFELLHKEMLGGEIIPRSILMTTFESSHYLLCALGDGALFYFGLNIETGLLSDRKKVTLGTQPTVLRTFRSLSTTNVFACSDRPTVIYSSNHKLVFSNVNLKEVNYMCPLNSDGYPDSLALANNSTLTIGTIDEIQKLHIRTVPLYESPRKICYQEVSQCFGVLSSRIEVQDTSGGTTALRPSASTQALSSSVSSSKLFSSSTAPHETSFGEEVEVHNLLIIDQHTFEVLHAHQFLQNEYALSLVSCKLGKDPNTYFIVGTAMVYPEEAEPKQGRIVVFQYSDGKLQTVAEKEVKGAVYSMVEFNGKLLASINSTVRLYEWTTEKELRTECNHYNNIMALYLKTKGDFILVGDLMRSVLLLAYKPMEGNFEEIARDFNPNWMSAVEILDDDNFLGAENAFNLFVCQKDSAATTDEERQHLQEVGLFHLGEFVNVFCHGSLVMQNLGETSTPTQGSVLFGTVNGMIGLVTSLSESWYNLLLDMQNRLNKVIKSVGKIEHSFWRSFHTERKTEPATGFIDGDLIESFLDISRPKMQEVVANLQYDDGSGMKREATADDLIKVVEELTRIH

Structure (SMILES)	Dmax (CDK2) [%]	Ki (CRBN-DDB1) [nM]
O=C1CCC(c2ccc(N3CC(NC(=O)OCC4CC5(CCC5)C4)C3)cc2)C(=O)N1 (stereo not drawn) [Compound 62, spiro[3.3]heptan-2-ylmethyl (1-(4-(2,6-dioxopiperidin-3-yl)phenyl)azetidin-3-yl)carbamate]	> 80	100 to 1000
O=C1CCC(c2c(F)cc(N3CC(NC(=O)OCC4CCCCC4)C3)cc2F)C(=O)N1 (stereo not drawn) [Compound 51, cyclohexylmethyl (1-(4-(2,6-dioxopiperidin-3-yl)-3,5-difluorophenyl)azetidin-3-yl)carbamate]	> 80	≤ 100
Cc1c(Cl)cccc1N(C)C(=O)C12CC(OC(=O)NC3CN(c4cc(F)c(C5CCC(=O)NC5=O)c(F)c4)C3)(C1)C2 (stereo not drawn) [Compound 115, 3-((3-chloro-2-methylphenyl)(methyl)carbamoyl)bicyclo[1.1.1]pentan-1-yl (1-(4-(2,6-dioxopiperidin-3-yl)-3,5-difluorophenyl)azetidin-3-yl)carbamate]	10 to 50	≤ 100
N#Cc1cc(C2CCC(=O)NC2=O)ccc1N1CC(Nc2nnc(C3CC4(CCC4)C3)o2)C1 (stereo not drawn) [Compound 89, 5-(2,6-dioxopiperidin-3-yl)-2-(3-((5-(spiro[3.3]heptan-2-yl)-1,3,4-oxadiazol-2-yl)amino)azetidin-1-yl)benzonitrile]	50 to 80	> 1000
O=C1CCC(c2c(Cl)cc(N3CC(Nc4nnc(C5CC6(CCC6)C5)o4)C3)cc2Cl)C(=O)N1 (stereo not drawn) [Compound 102, 3-(2,6-dichloro-4-(3-((5-(spiro[3.3]heptan-2-yl)-1,3,4-oxadiazol-2-yl)amino)azetidin-1-yl)phenyl)piperidine-2,6-dione]	> 80	≤ 100
Cc1cccc(-c2nnc(NC3CN(c4cc(F)c(C5CCC(=O)NC5=O)c(F)c4)C3)o2)c1 (stereo not drawn) [Compound 97, 3-(2,6-difluoro-4-(3-((5-(m-tolyl)-1,3,4-oxadiazol-2-yl)amino)azetidin-1-yl)phenyl)piperidine-2,6-dione]	> 80	100 to 1000
O=C1CCC(c2c(F)cc(N3C[C@H](NC(=O)OCC4CC5(CCC5)C4)CC3=O)cc2F)C(=O)N1 (stereo partly drawn) [Compound 58, spiro[3.3]heptan-2-ylmethyl ((3R)-1-(4-(2,6-dioxopiperidin-3-yl)-3,5-difluorophenyl)-5-oxopyrrolidin-3-yl)carbamate]	50 to 80	≤ 100
O=C1CC[C@@H](c2c(F)cc(N3CC[C@@H](NC(=O)OCC4CC5(CCC5)C4)C3=O)cc2F)C(=O)N1 [Compound 55, spiro[3.3]heptan-2-ylmethyl ((R)-1-(4-((S)-2,6-dioxopiperidin-3-yl)-3,5-difluorophenyl)-2-oxopyrrolidin-3-yl)carbamate]	50 to 80	100 to 1000
CC1(CCCOC(=O)NC2CN(c3cc(F)c(C4CCC(=O)NC4=O)c(F)c3)C2)CC1 (stereo not drawn) [Compound 66, 3-(1-methylcyclopropyl)propyl (1-(4-(2,6-dioxopiperidin-3-yl)-3,5-difluorophenyl)azetidin-3-yl)carbamate]	> 80	≤ 100
COc1c(N2CC(C)(NC(=O)OCC3CC4(CCC4)C3)C2)ccc(C2CCC(=O)NC2=O)c1F (stereo not drawn) [Compound 2, spiro[3.3]heptan-2-ylmethyl (1-(4-(2,6-dioxopiperidin-3-yl)-3-fluoro-2-methoxyphenyl)-3-methylazetidin-3-yl)carbamate]	50 to 80	100 to 1000
CN(CC1CC1)C(=O)N1CC(OC(=O)NC2CN(c3cc(F)c(C4CCC(=O)NC4=O)c(F)c3)C2)C1 (stereo not drawn) [Compound 43, 1-((cyclopropylmethyl)(methyl)carbamoyl)azetidin-3-yl (1-(4-(2,6-dioxopiperidin-3-yl)-3,5-difluorophenyl)azetidin-3-yl)carbamate]	50 to 80	≤ 100
O=C1CCC(c2c(F)cc(N3CC(NC(=O)OCc4ccc(OC(F)(F)F)cc4)C3)cc2F)C(=O)N1 (stereo not drawn) [Compound 35, 4-(trifluoromethoxy)benzyl (1-(4-(2,6-dioxopiperidin-3-yl)-3,5-difluorophenyl)azetidin-3-yl)carbamate]	> 80	100 to 1000
